The source of these data is paper PMC4076021 (ACS chemical biology, 2014).

The target in experiment [1] is T1, GST-LSD1 (Homo sapiens, UniProt O60341). Put plainly: biochemical. It is filed as biochemical. Conditions: for kinact/KI: read-out: kinact/Ki(inact).
Experiment [2] concerns immature primary cortical neurons. The experiment in a line: Oxidative toxicity. As to conditions: 0.5 µM, 5 mM HCA, MTT. It is filed as cell-based, rat.
Experiment [3] relates to H3K4Me2 in LNCaP cells. The experiment in a line: Western blot of histone H3 methylation in LNCaP cells. It is filed as cell-based. For orientation: A western blot detects proteins with antibodies after separation by electrophoresis.
For experiment [4], the target named is T1, GST-LSD1. Put plainly: MassSQUIRM LSD1 inhibition assay. The class given is biochemical. As to conditions: 50 µM inhibitor, 30 min, 215 nM GST-LSD1.
In experiment [5] the test system is H3K4Me2 in H460 cells. The experiment in a line: Western blot of H3K4Me2 in H460 cells. The class given is cell-based. Conditions: H460, 48 h, compared with LNCaP.
The test system of experiment [6] is H460 cells.
Experiment [7] has as its system H460 cells. The experiment in a line: [3H] thymidine incorporation proliferation assay in H460 cells. It is filed as cell-based. As to conditions: H460, 48 h, 80 µM. (In general: Incorporation of labelled thymidine or its analogues reports DNA synthesis.)
Experiment [8] deals with T1, GST-LSD1. Conditions: cited from earlier work.
Where [9] appears, read: mechanism-based inactivation, extrapolated to zero substrate.

Where two headings read alike, the source gives them in different places.

Take `CNNCCc1ccccc1.Cl.Cl` [9a]: the “LSD1 inhibitory action (in words)” value in experiment [1] is “negated LSD1 inhibitory action”.
On to `CN(C)NCCc1ccccc1` [9b], for which the IC50 in experiment [1] was over 100 µM.
Turning to `COc1ccc(CCCNN)cc1.Cl.Cl` [9e], in experiment [1], the KI (inactivation) is 8 ± 3.5 µM, the “LSD1 inhibitory action (in words)” value is given as “made little difference”, the kinact is 0.0025 s⁻¹ and the kinact/KI is 317 M⁻¹ s⁻¹.
In experiment [1], `CNNCCCc1ccc(OC)cc1` [9f] showed a 50% inhibitory concentration (IC50) of over 100 µM.
For the molecule `NNCCCCc1ccccc1` [9h], in experiment [1], the KI (inactivation) was 22 ± 3 µM, the kinact is 0.002 s⁻¹ and the kinact/KI is 91.7 M⁻¹ s⁻¹.
For `NNCCOc1ccccc1` [10a], in that order: 44 ± 9.7 µM, 0.0025 s⁻¹ and 56.7 M⁻¹ s⁻¹.
`NNCCCOc1ccccc1` [10b]: in experiment [1], the KI (inactivation) is 12 ± 2.1 µM, the inactivation rate constant (kinact) is 0.00367 s⁻¹ and the kinact/KI was 300 M⁻¹ s⁻¹.
For `NNCCc1ccc(NC(=O)c2ccccc2)cc1` [12a], in that order: 0.28 ± 0.11 µM, 0.00317 s⁻¹ and 11700 M⁻¹ s⁻¹.
For `NNCCc1ccc(NC(=O)Cc2ccccc2)cc1` [12b], in that order: 0.37 ± 0.033 µM, 0.00333 s⁻¹ and 9000 M⁻¹ s⁻¹.
On to `NNCCc1ccc(NC(=O)CCc2ccccc2)cc1` [12c], for which, in experiment [1], the kinact is 0.004 s⁻¹ and the kinact/KI is 15300 M⁻¹ s⁻¹.
`Cl.Cl.NNCCc1ccc(NC(=O)CCCc2ccccc2)cc1` [12d]: the “survival of neurons after HCA treatment (in words)” value in experiment [2] is reported as “significantly enhanced survival”. For the same molecule, the “H3K4Me2 band density time course (in words)” value in experiment [3] (10 µM, normalized to vehicle, 3 biological replicates) is “Statistically significant increases were observed at 6, 24, 48, 72, and 96 h but not at 30 min and 12 h”. In addition, in experiment [3] (0.4–10 µM, 48 h), the “changes in H3K4Me1, H3K4Me3, unmethylated H3K4, H3K9Me2, H3K9Ac, H3K36Me3 (in words)” value was “no significant reproducible changes” and the “effect on LSD1 protein levels (in words)” value is reported as “no discernible effect”. Also, the “H3K4Me2 band density (in words)” value in experiment [3] (48 h, 3 µM and 10 µM, three biological replicates) is “Statistically significant increases”. In addition, the “LSD1 inhibition in MassSQUIRM assay (in words)” value in experiment [4] is given as “very substantial LSD1 inhibition”. The “effect on H3K4Me2 levels (in words)” value in experiment [5] is on record as “comparable dose-response effects”.
With `NNCCc1ccc(NC(=O)CCCCc2ccccc2)cc1` [12e], in experiment [1], the maximal inactivation rate constant (kinact) is 0.00367 s⁻¹ and the kinact/KI was 14300 M⁻¹ s⁻¹. Besides, the KI (inactivation) in experiment [1] (setting [9]) was 0.26 ± 0.11 µM.
Take `NNCCc1ccc(NC(=O)CCCc2ccc(Cl)cc2)cc1` [12f]: in experiment [1], the kinact is 0.00283 s⁻¹ and the kinact/KI was 18300 M⁻¹ s⁻¹.
For `NNCCc1ccc(NC(=O)CCCc2ccc([N+](=O)[O-])cc2)cc1` [12i], in that order: 0.0035 s⁻¹ and 12300 M⁻¹ s⁻¹.
With `CN(C(=O)CCCc1ccccc1)c1ccc(CCNN)cc1.O=C(O)C(=O)O` [12l], in experiment [1], the “fold weaker LSD1 inhibitor than bizine” value is ~ 30 fold, the kinact was 0.004 s⁻¹ and the kinact/KI is 2000 M⁻¹ s⁻¹. Besides, in experiment [1] (setting [9]), the KI (inactivation) was 2 ± 0.73 µM. For the same molecule, in experiment [3] (48 h, concentrations up to 10 µM), the “H3K4Me2 changes (in words)” value is given as “did not show changes in H3K4Me2”.
Turning to `NNCCc1ccc(N(Cc2ccccc2)C(=O)CCCc2ccccc2)cc1` [12m], in experiment [1], the kinact was 0.00367 s⁻¹ and the kinact/KI was 2330 M⁻¹ s⁻¹. Besides, the KI (inactivation) in experiment [1] (setting [9]) was 1.6 ± 0.49 µM.
As to `NNCCc1ccc(NC(=O)CCc2c[nH]c3ccccc23)cc1` [15a], in experiment [1], the kinact was 0.0035 s⁻¹ and the kinact/KI is 16700 M⁻¹ s⁻¹.
Take `Cc1[nH]c2ccccc2c1CCNCc1ccc(/C=C/C(=O)NO)cc1` [LBH-589]: the “combination effect on inhibition of H460 cell proliferation (in words)” value (“combination effect on inhibition” for short) in experiment [6] is listed as “additive to synergistic effects”.
For the molecule `Nc1ccccc1NC(=O)c1ccc(CNc2nccc(-c3cccnc3)n2)cc1` [MGCD0103], in experiment [6], the “combination effect on inhibition” value is “moderate antagonism” and the “combination index (CI)” value is recorded as over 1.
Consider `Nc1ccccc1NC(=O)c1ccc(CNC(=O)OCc2cccnc2)cc1` [MS-275], for which, in experiment [6], the “combination effect on inhibition” value is “additive to synergistic effects”.
As for `CC(/C=C/C(=O)NO)=C\[C@@H](C)C(=O)c1ccc(N(C)C)cc1` [TSA], in experiment [6], the “combination effect on inhibition” value is on record as “moderate antagonism” and the “combination index (CI)” value is reported as over 1.
With `Nc1ncn([C@@H]2O[C@H](CO)[C@@H](O)[C@H]2O)c(=O)n1` [azacytidine], the “combination effect on inhibition” value in experiment [6] is reported as “moderate antagonism”.
As to `NNCCCN1CCOCC1` [compound 11], in experiment [1], the half-inhibitory concentration (IC50) was over 100 µM and the “LSD1 inhibitory action (in words)” value is reported as “not compatible with LSD1 inhibition”.
With `NNCCc1ccc(NC(=O)/C=C/c2ccccc2)cc1` [compound 13], in experiment [1], the kinact is 0.00283 s⁻¹ and the kinact/KI is 28300 M⁻¹ s⁻¹.
Take `NNCCc1ccccc1` [phenelzine, reference compound]: in experiment [7], the “reduction in 3H-thymidine incorporation” value was under 50%. Further, the “H3K4Me2 changes (in words)” value in experiment [3] (48 h, concentrations up to 40 µM) is given as “did not induce H3K4Me2 changes”. Moreover, the “LSD1 inhibition in MassSQUIRM assay (in words)” value in experiment [4] was “negligible impact on LSD1 inhibition”. Further, the “concentration needed to extinguish LSD1 activity under MassSQUIRM conditions” value in experiment [8] was “greater than 10 mM”.

As usually defined, the IC50 is the concentration that gives 50% inhibition. As a reminder, the kinact is the maximal first-order rate at which the target is inactivated.
